Key:
LpPgb1 = biological target: T1, LpPgb1 (Lactiplantibacillus plantarum, UniProt F9UU25); assay: G6PDH-coupled NADPH absorbance assay ([…] nm); type: biochemical; details: 0.1 M HEPES-NaOH pH 8.0, 2 mM NADP+, 298 K; native enzyme 0.02 µM
T1 construct: gene pbg1; full length Met1-Glu478, 478 residues, ~55 kDa, homodimer; His6 cut by TEV, SNA- left at N-terminus; E. coli BL21 (DE3) Magic, pMCSG7

SmBgl = biological target: T2, SmBgl (Streptococcus mutans, UniProt Q8DT00); assay: X-ray crystal structure, […] Å; type: binding; details: crystallised with 5 mM 6'-P-gentiobiose; product in phosphate and -1 subsites
T2 construct: gene bgl; full length, 477 residues, ~55 kDa, homodimer; His6 cut by TEV, SNA- left at N-terminus; E. coli BL21 (DE3) Magic, pMCSG7; SeMet-labelled protein in kinetic assays

Structure (SMILES)	G6PDH-coupled NADPH absorbance assay (340 nm) (LpPgb1)	X-ray crystal structure, 1.48 Å (SmBgl)
O=P(O)(O)OC[C@H]1O[C@@H](O[C@H]2[C@H](O)[C@@H](O)C(O)O[C@@H]2CO)[C@H](O)[C@@H](O)[C@@H]1O (stereo partly drawn) [6′-P-cellobiose]	Both enzymes showed hydrolytic activity towards all of these substrates	
O=P(O)(O)OC[C@H]1O[C@@H](OC[C@H]2OC(O)[C@H](O)[C@@H](O)[C@@H]2O)[C@H](O)[C@@H](O)[C@@H]1O (stereo partly drawn) [6′-P-gentiobiose]	Both enzymes showed hydrolytic activity towards all of these substrates	
O=P(O)(O)OC[C@H]1OC(O)[C@H](O)[C@@H](O)[C@@H]1O (stereo partly drawn) [BG6, 6-P-β-glucose]		two BG6 ligands

From publication PMC3605045, “GH1-family 6-P-β-glucosidases from human microbiome lactic acid bacteria” (Acta Crystallographica Section D: Biological Crystallography, 2013)
